From patent US20080318954A1, “Compounds” (Cyclacel Limited, priority 2004, published 2008)

Legend:
CDK4/cyclin D1 = target: T1, CDK4/cyclin D1 (Homo sapiens, UniProt P11802); assay: CDK/cyclin kinase assay, CDK4/cyclin D1; format: biochemical; conditions: for inhibition at 1 µM: primary screening at 1 μM; for IC50: read-out: Kinase inhibition IC50 CDK4/D1
T1 construct: His6 (N); made in house; host or cells: CDK4: Sf9 insect cells (baculovirus); Cyclin D1: E. coli, Sf9
Method: (§1) CDK4/cyclin D1, CDK1/cyclin B, CDK2/cyclin E, CDK2/cyclin A, CDK9/cyclin T1 and CDK7/cyclin H, all with a His6 tag on the N-terminus, were expressed in Sf9 insect cells using an appropriate baculovirus construct. Sf9 culture (1.6×10^6 cells/mL) was infected (MOI of 3) for two days. The cells were harvested by low speed centrifugation and the protein was purified from the insect cell pellet by metal affinity chromatography. In short: the insect cell pellet was lysed in Buffer A (10 mM Tris-HCl pH 8.0, 150 mM NaCl, 0.02% NP-40, 5 mM β-mercaptoethanol, 20 mM NaF, 1 mM Na3VO4, and Sigma Protease Inhibitor Cocktail) by sonication. The soluble fraction was cleared by centrifugation and loaded onto Ni-NTA-Agarose (Qiagen). Non-bound protein was washed off with 300 mM NaCl, 5-15 mM imidazole in buffer A and the bound protein was eluted with buffer A supplemented with 250 mM imidazole. The purified proteins were extensively dialyzed against storage buffer (20 mM HEPES pH 7.4, 50 mM NaCl, 2 mM DTT, 1 mM EDTA, 1 mM EGTA, 0.02% NP-40, 10% v/v glycerol) and stored at −70° C.
(§2) Compounds were investigated for their CDK2/cyclin E, CDK2/cyclin A, CDK1/cyclin B, and CDK4/cyclin D1 inhibitory activity. His6-tagged recombinant human cyclin-dependent kinases CDK1/cyclin B1, CDK2/cyclin E, CDK2/cyclin A, and CDK4 were expressed in sf9 insect cells using a baculovirus expression system. Recombinant cyclin D1 was expressed in E. coli. Proteins were purified by metal chelate affinity chromatography to greater than 90% homogeneity. Kinase assays were performed in 96-well plates using recombinant CDK/cyclins. Assays were performed in assay buffer (25 mM β-glycerophosphate, 20 mM MOPS, 5 mM EGTA, 1 mM DTT, 1 mM […], pH 7.4), into which were added 2-4 μg of active enzyme with appropriate substrates (purified histone H1 for CDK1 and CDK2, recombinant GST-retinoblastoma protein (residues 773-928) for CDK4). The reaction was initiated by addition of Mg/ATP mix (15 mM MgCl2+100 μM ATP with 30-50 kBq per well of [γ-^32P]-ATP) and mixtures incubated for 10-45 min, as required, at 30° C. Reactions were stopped on ice, followed by filtration through p81 or GF/C filterplates (for CDK4) (Whatman Polyfiltronics, Kent, UK). After washing 3 times with 75 mM aq orthophosphoric acid, plates were dried, scintillant added and incorporated radioactivity measured in a scintillation counter (TopCount, Packard Instruments, Pangbourne, Berks, UK). Compounds for kinase assays were made up as 10 mM stocks in DMSO and diluted into 10% DMSO in assay buffer. Data was analysed using curve-fitting software (GraphPad Prism version 3.00 for Windows, GraphPad Software, San Diego Calif. USA) to determine IC50 values (concentration of test compound which inhibits kinase activity by 50%).

CDK2/cyclin A = target: T2, CDK2/cyclin A (Homo sapiens, UniProt P24941); assay: CDK/cyclin kinase assay, CDK2/cyclin A; format: biochemical; conditions: for inhibition at 1 µM: primary screening at 1 μM; for IC50: read-out: Kinase inhibition IC50 CDK2/A
T2 construct: His6 (N); made in house; host or cells: Sf9 insect cells (baculovirus)
Method: as §1, §2

CDK2/cyclin E = target: T3, CDK2/cyclin E (Homo sapiens, UniProt P24941); assay: CDK/cyclin kinase assay, CDK2/cyclin E; format: biochemical; conditions: for inhibition at 1 µM: primary screening at 1 μM; for IC50: read-out: Kinase inhibition IC50 CDK2/E
T3 construct: His6 (N); made in house; host or cells: Sf9 insect cells (baculovirus)
Method: as §1, §2

CDK1/cyclin B1 = target: T4, CDK1/cyclin B1 (Homo sapiens, UniProt P06493); assay: CDK/cyclin kinase assay, CDK1/cyclin B1; format: biochemical; conditions: for inhibition at 1 µM: primary screening at 1 μM; for IC50: read-out: Kinase inhibition IC50 CDK1/B1
T4 construct: His6 (N); made in house; host or cells: Sf9 insect cells (baculovirus)
Method: as §1, §2

GSK-3β = target: T5, GSK-3β (Oryctolagus cuniculus, UniProt G1T8E2); assay: GSK-3β kinase assay; format: biochemical, rabbit; conditions: read-out: Kinase inhibition IC50 GSK3β
T5 construct: isolated from a strain of E. coli that carries a clone expressing GSK-3β derived from a rabbit skeletal muscle cDNA library [34]
Method: GSK-3 was obtained from New England Biolabs (UK) Ltd., Hitchin, Herts. The recombinant enzyme was isolated from a strain of E. coli that carries a clone expressing GSK-3β derived from a rabbit skeletal muscle cDNA library. Inhibition of GSK-3 function was assessed by measurement of phosphorylation of CREB phosphopeptide KRREILSRRPpSYR in the presence of test compounds. Using a 96-well assay format, GSK3 (7.5 U) was incubated for 30 min at 30° C. in a total volume of 25 μL in 20 mM MOPS pH 7.2, 25 mM β-glycerophosphate, 5 mM EGTA, 1 mM DTT, 1 mM […], 40 μM CREB peptide, 15 mM MgCl2 and 100 μM ATP (containing 0.25 μCi [γ-^32P]-ATP) in the presence of varying concentrations of test compound. The samples were transferred to 96-well p81 filter plates (Whatman Polyfiltronics, Kent, UK), and the plates were washed 4 times with 200 μL/well of 75 mM aq orthophosphoric acid. Scintillation liquid (50 μL) was added to each well, and incorporated radioactivity for each sample was determined using a scintillation counter (TopCount, Packard Instruments, Pangbourne, Berks, UK).

[1] = test system: glycogen synthase activity in HEK293 cells; assay: Glycogen synthase (GS) assay in HEK293 cells; format: cell-based, human; conditions: Homo sapiens; In HEK293 cells at [compound] = 5 μM (Table 2)
Method: Cells on 10 cm dishes (Human Embryonic Kidney (HEK) 293 cells, L6 rat myocytes, or 3T3 mouse adipocytes) were treated with different concentrations of GSK3-inhibitors or DMSO vehicle for 90 min. Incubation medium was removed and cells were washed with ice-cold phosphate-buffered saline (PBS) prior to lysis on ice in 50 mM HEPES, pH 7.5, 10 mM EDTA, 100 mM NaF, 5 mM DTT, protease inhibitor cocktail (Sigma). After a freeze/thaw cycle the samples are sonicated for 10 sec and centrifuged at 15,000 g for 10 min at 4° C. Lysate supernatants were snap-frozen on liquid nitrogen and stored at −80° C. Lysates were assayed for glycogen synthase activity in buffer (50 mM Tris-HCl, pH 7.8, 20 mM EDTA, 25 mM NaF, 5 mM DTT, 1% glycogen, 0.3 mM UDP-glucose and 0.06 μCi of [^14C]-UDP-glucose in the presence of 0.1 or 10 mM glucose-6-phosphate. The reaction was carried out for 30 min at 30° C. 70 μL of the reaction mixture (total volume 90 μL) were transferred to a GFC 96-well filter plate (bottom sealed with foil), containing 140 μL 96% ethanol. The GFC plate was incubated for 1 h on ice and than washed with 66% ethanol. To each well 100 μL scintillant liquid was added and the radioactivity of the samples was measured using a scintillation counter (Topcount, HP). Data are expressed as -fold increase in glycogen synthase activity ratios over those of control samples.

T4 sequence (P06493 whole entry): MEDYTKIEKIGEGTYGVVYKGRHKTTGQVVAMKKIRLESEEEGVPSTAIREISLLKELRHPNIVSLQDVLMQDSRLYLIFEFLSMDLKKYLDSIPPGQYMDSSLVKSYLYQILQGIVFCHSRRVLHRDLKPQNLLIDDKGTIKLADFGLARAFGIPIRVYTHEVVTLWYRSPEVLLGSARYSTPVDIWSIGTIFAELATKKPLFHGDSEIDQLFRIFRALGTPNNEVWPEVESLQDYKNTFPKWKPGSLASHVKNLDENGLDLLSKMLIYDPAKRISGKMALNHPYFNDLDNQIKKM
T4 sequence (P14635 whole entry partner): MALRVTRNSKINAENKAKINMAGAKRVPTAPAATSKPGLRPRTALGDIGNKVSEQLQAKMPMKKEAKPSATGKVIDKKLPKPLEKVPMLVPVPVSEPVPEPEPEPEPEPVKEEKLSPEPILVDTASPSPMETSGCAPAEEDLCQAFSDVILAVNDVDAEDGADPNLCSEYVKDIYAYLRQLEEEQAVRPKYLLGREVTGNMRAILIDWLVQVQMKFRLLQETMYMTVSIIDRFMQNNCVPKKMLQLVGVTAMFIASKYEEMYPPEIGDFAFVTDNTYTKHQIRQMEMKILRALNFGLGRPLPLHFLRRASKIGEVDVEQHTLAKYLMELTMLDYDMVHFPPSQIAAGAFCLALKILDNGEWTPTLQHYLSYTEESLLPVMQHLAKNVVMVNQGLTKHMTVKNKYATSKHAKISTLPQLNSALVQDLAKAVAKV
T5 sequence (G1T8E2 1-432): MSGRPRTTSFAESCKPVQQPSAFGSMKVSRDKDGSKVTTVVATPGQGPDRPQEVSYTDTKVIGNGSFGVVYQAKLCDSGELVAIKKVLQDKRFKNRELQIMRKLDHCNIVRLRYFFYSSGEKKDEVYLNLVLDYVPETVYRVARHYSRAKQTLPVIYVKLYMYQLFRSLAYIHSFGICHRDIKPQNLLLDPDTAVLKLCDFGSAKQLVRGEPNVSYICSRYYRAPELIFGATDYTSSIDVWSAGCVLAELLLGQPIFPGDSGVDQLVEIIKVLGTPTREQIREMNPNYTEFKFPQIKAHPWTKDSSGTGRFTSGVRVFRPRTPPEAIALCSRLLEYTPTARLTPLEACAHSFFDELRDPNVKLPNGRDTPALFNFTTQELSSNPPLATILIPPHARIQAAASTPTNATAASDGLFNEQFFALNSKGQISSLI
T1 sequence (P11802 whole entry): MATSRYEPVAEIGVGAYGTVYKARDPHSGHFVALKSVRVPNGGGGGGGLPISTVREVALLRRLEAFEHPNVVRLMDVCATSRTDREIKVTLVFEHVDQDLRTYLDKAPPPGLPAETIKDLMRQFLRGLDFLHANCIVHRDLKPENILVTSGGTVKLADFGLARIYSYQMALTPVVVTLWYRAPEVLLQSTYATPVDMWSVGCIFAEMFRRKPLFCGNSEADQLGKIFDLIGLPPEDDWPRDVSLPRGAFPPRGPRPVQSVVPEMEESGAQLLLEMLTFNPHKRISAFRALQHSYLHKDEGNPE
T1 sequence (P24385 whole entry partner): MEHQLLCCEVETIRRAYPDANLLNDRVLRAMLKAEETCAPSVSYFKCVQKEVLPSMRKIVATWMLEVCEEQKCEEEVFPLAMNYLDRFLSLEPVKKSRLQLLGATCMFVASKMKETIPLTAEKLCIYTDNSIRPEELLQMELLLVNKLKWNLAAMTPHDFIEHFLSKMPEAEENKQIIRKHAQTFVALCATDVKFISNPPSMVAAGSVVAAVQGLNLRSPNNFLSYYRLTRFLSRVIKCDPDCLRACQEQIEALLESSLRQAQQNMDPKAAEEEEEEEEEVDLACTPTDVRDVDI

Row | SMILES | inhibition at 1 µM (CDK4/cyclin D1) [%] | inhibition at 1 µM (CDK2/cyclin A) [%] | inhibition at 1 µM (CDK2/cyclin E) [%] | inhibition at 1 µM (CDK1/cyclin B1) [%] | IC50 (GSK-3β) [µM] | IC50 (CDK4/cyclin D1) [µM] | IC50 (CDK2/cyclin A) [µM] | fold induction at 5 µM [1] | IC50 (CDK2/cyclin E) [µM] | IC50 (CDK1/cyclin B1) [µM]
1 | Cc1nc(-c2ccnc(Nc3cccc(C(F)(F)F)c3)n2)sc1C [Compound X, [4-(4,5-Dimethyl-thiazol-2-yl)-pyrimidin-2-yl]-(3-trifluoromethyl-phenyl)-amine] | < 50 | < 50 | < 50 | < 50 | 12.2 | – | – | – | – | –
2 | Cc1nc(-c2ccnc(Nc3ccc(Cl)c(C(F)(F)F)c3)n2)sc1C [Compound XI, (4-Chloro-3-trifluoromethyl-phenyl)-[4-(4,5-dimethyl-thiazol-2-yl)-pyrimidin-2-yl]-amine] | < 50 | < 50 | < 50 | < 50 | 15.6 | – | – | – | – | –
3 | Cc1nc(-c2ccnc(Nc3cccc(O)c3)n2)sc1C [IX, 3-[4-(4,5-Dimethyl-thiazol-2-yl)-pyrimidin-2-ylamino]-phenol] | < 50 | < 50 | < 50 | < 50 | 1.53 | – | – | – | – | –
4 | CCOC(=O)c1sc(-c2ccnc(Nc3ccc(Cl)cc3)n2)nc1O [VII, 2-[2-(4-Chloro-phenylamino)-pyrimidin-4-yl]-4-hydroxy-thiazole-5-carboxylic acid ethyl ester] | – | – | – | – | 0.135 | > 10 | > 10 | 2.3 | > 1 | > 10
5 | Cc1nc(-c2ccnc(Nc3cccc(N)c3)n2)sc1C [VIII, N-[4-(4,5-Dimethyl-thiazol-2-yl)-pyrimidin-2-yl]-benzene-1,3-diamine] | < 50 | < 50 | < 50 | < 50 | 3.47 | – | – | – | – | –
6 | COc1ccc(Nc2nccc(-c3nccs3)n2)cn1 [XIII, (6-Methoxy-pyridin-3-yl)-(4-thiazol-2-yl-pyrimidin-2-yl)-amine] | – | – | – | – | 0.91 | > 100 | > 100 | 1.5 | > 50 | > 100
7 | COc1ccc(Nc2nccc(-c3nc(C)c(C)s3)n2)cn1 [XVI, [4-(4,5-Dimethyl-thiazol-2-yl)-pyrimidin-2-yl]-(6-methoxy-pyridin-3-yl)-amine] | – | – | – | – | 5.45 | > 10 | > 10 | – | > 1 | > 10
8 | Cc1nc(-c2ccnc(Nc3ccc(Cl)nc3)n2)sc1C [XVII, (6-Chloro-pyridin-3-yl)-[4-(4,5-dimethyl-thiazol-2-yl)-pyrimidin-2-yl]-amine] | – | – | – | – | 2.91 | > 10 | > 10 | – | > 10 | > 10
9 | Cc1sc(-c2ccnc(Nc3ccc(Cl)cc3)c2)nc1O [XXII, 2-[2-(4-Chloro-phenylamino)-pyridin-4-yl]-5-methyl-thiazol-4-ol] | < 50 | < 50 | < 50 | < 50 | 0.47 | – | – | 1.5 ± 0.4 | – | –
10 | c1cc(-c2nccs2)nc(Nc2ccc(N3CCCC3)nc2)n1 [XXIII, (6-Pyrrolidin-1-yl-pyridin-3-yl)-(4-thiazol-2-yl-pyrimidin-2-yl)-amine] | < 50 | < 50 | < 50 | < 50 | 0.482 | – | – | 1.35 ± 0.07 | – | –
11 | CCOC(=O)c1sc(-c2ccnc(Nc3ccc(Cl)nc3)n2)nc1O [XXIV, 2-[2-(6-Chloro-pyridin-3-ylamino)-pyrimidin-4-yl]-4-hydroxy-thiazole-5-carboxylic acid ethylester] | – | < 50 | < 50 | < 50 | 0.019 | 0.96 | – | 4.3 ± 0.32 | – | –
12 | Cc1sc(-c2ccnc(Nc3ccc(Cl)nc3)n2)nc1O [XXV, 2-[2-(6-Chloro-pyridin-3-ylamino)-pyrimidin-4-yl]-5-methyl-thiazol-4-ol] | – | < 50 | < 50 | < 50 | 0.08 | – | – | 2.1 ± 0.3 | – | –
13 | OCCc1sc(-c2ccnc(Nc3ccc(Cl)nc3)n2)nc1O [XXVI, 2-[2-(6-Chloro-pyridin-3-ylamino)-pyrimidin-4-yl]-5-(2-hydroxy-ethyl)-thiazol-4-ol] | – | < 50 | < 50 | < 50 | 0.164 | 2.08 | – | 5.2 ± 3.2 | – | –
14 | Cc1cc(Nc2nccc(-c3nccs3)n2)cnc1Cl [XXVII, (6-Chloro-5-methyl-pyridin-3-yl)-(4-thiazol-2-yl-pyrimidin-2-yl)-amine] | – | – | < 50 | – | 0.09 | – | – | 1.5 ± 0.4 | – | –
